Results taken from patent publication US10844051B2, “Substituted oxazoles for the treatment of cancer” (THE ROYAL INSTITUTION FOR THE ADCANCEMENT OF …, priority 2015, dated 2020).
Entries after “also recorded” stand apart in the source; their conditions may differ.

Legend:
mouse STING (mSTING) = biological target: T1, mouse STING (mSTING) (Mus musculus, UniProt Q3TBT3); assay: mSTING ISRE-luc reporter assay in 293T cells; assay type: cell-based; conditions: 24 hours
T1 construct: expressed in transfected cells; host or cells: 293T
T1 sequence (Q3TBT3 1-378): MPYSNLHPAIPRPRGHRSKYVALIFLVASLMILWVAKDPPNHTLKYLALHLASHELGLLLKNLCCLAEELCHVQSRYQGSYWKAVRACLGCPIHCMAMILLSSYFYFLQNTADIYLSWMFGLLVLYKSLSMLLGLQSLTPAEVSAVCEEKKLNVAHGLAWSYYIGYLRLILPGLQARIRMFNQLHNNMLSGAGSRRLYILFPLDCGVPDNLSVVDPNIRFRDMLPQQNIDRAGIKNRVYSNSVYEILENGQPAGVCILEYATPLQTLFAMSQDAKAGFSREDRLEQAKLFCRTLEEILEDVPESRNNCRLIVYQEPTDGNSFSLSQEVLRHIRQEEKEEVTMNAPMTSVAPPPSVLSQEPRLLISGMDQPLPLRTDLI
Procedure: ISRE-luc (reporter), pRL-TK (internal control) and mSTING-expressing plasmids were transiently transfected into 293T cells. Cells were exposed to DMSO vehicle control or compounds for 24 hours. Experiments were done in triplicate.

human STING (hSTING) = biological target: T2, human STING (hSTING) (Homo sapiens, UniProt Q86WV6); assay: hSTING ISRE-luc reporter assay in 293T cells; assay type: cell-based; conditions: 24 hours
T2 construct: expressed in transfected cells; host or cells: 293T
Procedure: ISRE-luc (reporter), pRL-TK (internal control) and hSTING-expressing plasmids were transiently transfected into 293T cells. Cells were exposed to DMSO vehicle control or compounds for 24 hours. Experiments were done in triplicate.

[1] = biological target: T3, recombinant protein of human GATA2 (Homo sapiens, UniProt P23769); assay: SPR analysis on amine-coupled GATA2; assay type: binding; conditions: 50 μM each
T3 sequence (P23769 1-480): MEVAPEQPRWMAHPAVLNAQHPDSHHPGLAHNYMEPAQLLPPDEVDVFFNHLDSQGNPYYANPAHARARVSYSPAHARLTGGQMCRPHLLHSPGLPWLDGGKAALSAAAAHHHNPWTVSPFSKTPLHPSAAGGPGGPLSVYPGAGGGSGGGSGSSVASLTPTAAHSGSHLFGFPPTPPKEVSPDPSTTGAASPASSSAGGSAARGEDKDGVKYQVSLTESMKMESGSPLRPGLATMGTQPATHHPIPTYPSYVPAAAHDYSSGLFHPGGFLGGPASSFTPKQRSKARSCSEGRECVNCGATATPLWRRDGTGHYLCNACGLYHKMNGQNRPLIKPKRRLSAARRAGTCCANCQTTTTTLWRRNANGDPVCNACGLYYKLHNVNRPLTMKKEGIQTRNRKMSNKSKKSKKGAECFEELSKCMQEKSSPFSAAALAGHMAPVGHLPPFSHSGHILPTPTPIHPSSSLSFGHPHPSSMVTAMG
From the text: In embodiments of the invention, the androgen-bound AR is regressing GATA2 expression and inhibition of AR via castration or use of antiandrogen releases such expression. […] Overexpression of GATA2 confers resistance to antiandrogen bicalutamide (Bic) (FIG. 2.9). Compound 673 is effective against the LNCaP stably transfected with GATA2-expressing plasmid (referred to as LNCaP-GATA2 cells) (FIG. 2.8).

human GATA2 = biological target: T4, human GATA2 (Homo sapiens, UniProt P23769); assay: GATA2-dependent reporter assay in IHH cells; assay type: cell-based; conditions: GATA-Luc reporter, 48 h
T4 construct: expressed in transfected cells; host or cells: IHH
T4 sequence (P23769 1-480): T3 sequence (P23769 1-480)
Procedure: K7174 is a known GATA2 inhibitor. The IHH cells were transiently transfected with empty vector (for the NT) or human GATA2-expressing plasmid as well as pRL-TK (internal control) and GATA-Luc reporter plasmids. Cells were exposed to DMSO vehicle or compounds for 48 h. Experiments were in triplicate.

ETV1 = biological target: T5, ETV1 (Homo sapiens, UniProt P50549); assay: ETV1-dependent reporter assay in HEK293 cells; assay type: cell-based; conditions: 48 hours
T5 construct: expressed in transfected cells; host or cells: HEK293
T5 sequence (P50549 1-477): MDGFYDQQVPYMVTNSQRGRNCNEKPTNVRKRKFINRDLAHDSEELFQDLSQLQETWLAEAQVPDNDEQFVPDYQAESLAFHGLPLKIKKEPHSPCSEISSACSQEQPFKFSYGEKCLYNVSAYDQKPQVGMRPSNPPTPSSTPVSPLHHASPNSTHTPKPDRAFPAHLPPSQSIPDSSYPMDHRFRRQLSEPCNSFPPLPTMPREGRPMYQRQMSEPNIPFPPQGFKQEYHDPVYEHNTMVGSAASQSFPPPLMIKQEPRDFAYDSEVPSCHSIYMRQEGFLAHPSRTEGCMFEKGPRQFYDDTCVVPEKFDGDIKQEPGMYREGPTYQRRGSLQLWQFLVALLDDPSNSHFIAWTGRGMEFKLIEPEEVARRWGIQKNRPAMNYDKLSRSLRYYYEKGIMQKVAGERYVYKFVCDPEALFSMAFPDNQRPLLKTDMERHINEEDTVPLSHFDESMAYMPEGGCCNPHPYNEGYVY
Procedure: (§1) HEK293 cells were transiently transfected with empty vector (for the NT) or ERG-expressing plasmid as well as pRL-TK (internal control) and PUx3-Luc reporter. Cells were then exposed to DMSO vehicle or compounds at designated doses for 48 hours. Experiments were done in triplicate.
Experiments were done as described above in FIG. 1.1a) except that ERG plasmid was replaced by ETV1 plasmid.

human GATA3 = biological target: T6, human GATA3 (Homo sapiens, UniProt P23771); assay: GATA3-dependent reporter assay in IHH cells; assay type: cell-based; conditions: 48 hours, 10 μM
T6 construct: expressed in transfected cells; host or cells: IHH
Procedure: The IHH cells were transiently transfected with empty vector (for the NT) or human GATA3-expressing plasmid as well as pRL-TK (internal control) and GATA-Luc reporter plasmids. Cells were exposed to DMSO vehicle or compounds for 48 hours. Experiments were done in triplicate.

ERG = biological target: T7, ERG (Homo sapiens, UniProt P11308); assay: ERG-dependent reporter assay in HEK293 cells; assay type: cell-based; design: expressed in transfected cells; host or cells: HEK293; conditions: PUx3-Luc reporter, 48 hours, designated doses
T7 sequence (P11308 1-486 isoform P11308-3): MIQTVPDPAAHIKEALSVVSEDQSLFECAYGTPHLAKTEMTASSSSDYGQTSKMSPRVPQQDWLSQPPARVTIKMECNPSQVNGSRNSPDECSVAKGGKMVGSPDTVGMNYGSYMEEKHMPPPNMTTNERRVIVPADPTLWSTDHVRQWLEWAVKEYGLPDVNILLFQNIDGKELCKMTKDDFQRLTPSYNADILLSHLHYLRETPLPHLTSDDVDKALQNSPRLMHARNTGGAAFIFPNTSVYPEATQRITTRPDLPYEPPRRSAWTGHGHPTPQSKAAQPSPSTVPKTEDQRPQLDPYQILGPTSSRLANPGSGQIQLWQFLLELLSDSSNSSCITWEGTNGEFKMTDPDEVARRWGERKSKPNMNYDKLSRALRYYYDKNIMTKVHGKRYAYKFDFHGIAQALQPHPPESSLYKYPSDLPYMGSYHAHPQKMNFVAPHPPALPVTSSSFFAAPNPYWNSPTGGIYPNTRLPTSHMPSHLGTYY
Procedure: as §1

[2] = test system: interferon signaling pathway in THP-1 cells; assay: Western blot, interferon signaling in THP-1 cells; assay type: cell-based; conditions: 16 hours
Procedure: THP1 cells were treated for 16 hours with the indicated concentration (μM) of compounds or DMSO vehicle control. Whole-cell extracts were prepared and subjected to Western blot analysis with the antibodies as indicated.

T2 sequence (Q86WV6 whole entry H232R): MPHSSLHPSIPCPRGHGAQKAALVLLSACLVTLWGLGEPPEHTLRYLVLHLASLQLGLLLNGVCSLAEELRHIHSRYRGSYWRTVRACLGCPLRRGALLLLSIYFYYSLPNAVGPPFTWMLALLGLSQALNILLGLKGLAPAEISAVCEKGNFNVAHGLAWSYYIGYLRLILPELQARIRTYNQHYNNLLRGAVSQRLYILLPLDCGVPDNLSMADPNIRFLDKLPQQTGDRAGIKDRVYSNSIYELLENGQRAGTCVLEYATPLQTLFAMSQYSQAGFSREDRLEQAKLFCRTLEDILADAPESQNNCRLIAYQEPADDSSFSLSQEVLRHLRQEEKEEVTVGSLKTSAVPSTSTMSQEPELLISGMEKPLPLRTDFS
T6 sequence (P23771 whole entry): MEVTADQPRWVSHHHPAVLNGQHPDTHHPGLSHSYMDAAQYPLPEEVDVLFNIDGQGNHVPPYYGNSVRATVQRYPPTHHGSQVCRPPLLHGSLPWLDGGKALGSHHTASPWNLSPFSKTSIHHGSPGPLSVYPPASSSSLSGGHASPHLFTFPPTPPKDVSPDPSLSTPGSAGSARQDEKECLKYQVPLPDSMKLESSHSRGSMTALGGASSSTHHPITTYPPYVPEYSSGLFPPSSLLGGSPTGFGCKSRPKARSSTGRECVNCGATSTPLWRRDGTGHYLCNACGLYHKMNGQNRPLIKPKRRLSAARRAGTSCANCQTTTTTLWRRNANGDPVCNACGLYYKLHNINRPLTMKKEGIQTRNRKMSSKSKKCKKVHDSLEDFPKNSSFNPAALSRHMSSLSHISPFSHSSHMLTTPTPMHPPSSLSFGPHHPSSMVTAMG

activation of mSTING in ISRE-luc reporter assay (mouse STING (mSTING)) | activation of hSTING in ISRE-luc reporter assay (human STING (hSTING)) | GATA2 inhibition in GATA2-dependent reporter assay (human GATA2) | Structure (SMILES) | activation of interferon signaling pathway (Western blot) [2] | further results
activate mouse STING (mSTING) | activate human STING (hSTING) |  | COc1cccc(-c2nc(CCCc3c[nH]c4ccccc34)oc2-c2cccc(OC)c2)c1 [Compound 640] |  | 
 | activate human STING (hSTING) |  | COc1ccc(-c2nc(CCCc3c[nH]c4ccccc34)oc2-c2ccc(OC)cc2)cc1 [Compound 670] |  | binding to amine-coupled GATA2 (SPR) [1]: Direct binding; also recorded: Specific binding
activate mouse STING (mSTING) | activate human STING (hSTING) |  | FC(F)(F)c1ccc(-c2nc(CCCc3c[nH]c4ccccc34)oc2-c2ccc(C(F)(F)F)cc2)cc1 [Compound 672] |  | 
 |  | GATA2 inhibitors | Oc1cccc(-c2nc(CCc3c[nH]c4ccccc34)oc2-c2cccc(O)c2)c1 [Compound 675] |  | ETV1 inhibition in ETV1-dependent reporter assay (ETV1): ETV1 inhibitors; activity against GATA3 in GATA3-dependent reporter assay (human GATA3): inactive against GATA3; ERG inhibition in ERG-dependent reporter assay (ERG): ERG inhibitors
activate mouse STING (mSTING) | activate human STING (hSTING) |  | FC(F)(F)c1cccc(-c2nc(CCCc3c[nH]c4ccccc34)oc2-c2cccc(C(F)(F)F)c2)c1 [Compound 681] |  | 
activate mouse STING (mSTING) | activate human STING (hSTING) |  | Fc1cccc(-c2nc(CCc3c[nH]c4ccccc34)oc2-c2cccc(F)c2)c1 [Compound 761] | activate interferon signaling pathway | 
 | activate hSTING | GATA2 inhibitors | Fc1cccc(-c2oc(CCCc3c[nH]c4ccccc34)nc2-c2ccco2)c1 [Compound 834] | activate interferon signaling pathway | 
 | activate hSTING | GATA2 inhibitors | COc1cccc(-c2oc(CCCc3c[nH]c4ccccc34)nc2-c2ccco2)c1 [Compound 840] | activate interferon signaling pathway | 
